Experimental findings from PubChem BioAssay AID190 (DTP/NCI, 2004) are described below.

Several values for one entry are separate records, joined by “and”; a condition that tells them apart may be missing. Equal values may be shown once. Toxic doses and inconclusive results are not listed.

The subject of this test is AKR/Lw mice, AKR lymphoma ip, median survival T/C. Briefly: NCI In Vivo Anticancer Drug Screen. Data for tumor model Lymphoma AKR (Transplanted) (intraperitoneal) in AKR/Lw mice. The following applies: endpoint: median survival time, higher = longer survival. Here is the method:
The antitumor activity of compounds was measured in mice bearing transplantable tumors. Survival or tumor size were measured and the results are expressed as the measurement made in the treated group (T) divided by the measurement made in the vehicle treated control group (C). The tumor model used in this assay is Lymphoma AKR (Transplanted) (intraperitoneal) in AKR/Lw mice

Setting [1] is: dose: 100.0 mg/kg/injection, schedule: Q01DX001 (ip), vehicle: saline.
Where [2] appears, read: dose: 200.0 mg/kg/injection, schedule: Q01DX001 (ip), vehicle: saline.
The mark [3] stands for this setting: dose: 400.0 mg/kg/injection, schedule: Q01DX001 (ip), vehicle: saline.
The mark [4] stands for this setting: dose: 100.0 mg/kg/injection, schedule: Q01DX001 (ip), vehicle: Klucel (hydroxypropylcellulose) (HPC).
Setting [5] is: dose: 200.0 mg/kg/injection, schedule: Q01DX001 (ip), vehicle: Klucel (hydroxypropylcellulose) (HPC).

Regarding `O=c1[nH]c(=O)n(C2CC(O)C(CO)O2)cc1F` (stereo not given), the T/C reads like this: (dose: 3.1 mg/kg/injection, schedule: Q04DX003 (ip), vehicle: saline) 100 % of control; (dose: 5.0 mg/kg/injection, schedule: Q01DX009 (ip), vehicle: saline) 100 % of control; (dose: 6.2 mg/kg/injection, schedule: Q04DX003 (ip), vehicle: saline) 92 % of control; (dose: 6.25 mg/kg/injection, schedule: Q01DX009 (ip), vehicle: saline) 104 % of control; (dose: 10.0 mg/kg/injection, schedule: Q01DX009 (ip), vehicle: saline) 106 % of control; (dose: 11.0 mg/kg/injection, schedule: Q01DX015 (ip), vehicle: saline) 86 % of control. In addition, the T/C reads like this: (dose: 12.5 mg/kg/injection, schedule: Q01DX015 (ip), vehicle: saline) 117 % of control; (dose: 12.5 mg/kg/injection, schedule: Q04DX003 (ip), vehicle: saline) 94 % of control and 102 % of control; (dose: 15.0 mg/kg/injection, schedule: Q01DX009 (ip), vehicle: saline) 102 % of control and 123 % of control; (dose: 16.5 mg/kg/injection, schedule: Q01DX015 (ip), vehicle: saline) 86 % of control; (dose: 25.0 mg/kg/injection, schedule: Q01DX015 (ip), vehicle: saline) 113 % of control; (dose: 25.0 mg/kg/injection, schedule: Q04DX003 (ip), vehicle: saline) 90 % of control and 97 % of control. Further, the T/C (dose: 40.0 mg/kg/injection, schedule: Q01DX015 (ip), vehicle: saline) is 86 % of control; the T/C (dose: 50.0 mg/kg/injection, schedule: Q01DX015 (ip), vehicle: saline) was 114 % of control and 121 % of control; the T/C (dose: 60.0 mg/kg/injection, schedule: Q01DX001 (ip), vehicle: saline) was 111 % of control; the T/C (dose: 60.0 mg/kg/injection, schedule: Q01DX009 (ip), vehicle: saline) was 112 % of control and 117 % of control; the T/C (dose: 75.0 mg/kg/injection, schedule: Q01DX009 (ip), vehicle: saline) was 115 % of control; the T/C under setting [1] is 95 % of control and 97 % of control. Further, the T/C was 86 % of control and 90 % of control and 104 % of control (dose: 100.0 mg/kg/injection, schedule: Q04DX003 (ip), vehicle: saline); 107 % of control (dose: 120.0 mg/kg/injection, schedule: Q01DX001 (ip), vehicle: saline); 105 % of control and 110 % of control and 116 % of control (dose: 150.0 mg/kg/injection, schedule: Q01DX001 (ip), vehicle: saline); 123 % of control (dose: 150.0 mg/kg/injection, schedule: Q04DX003 (ip), vehicle: saline); 104 % of control and 105 % of control and 119 % of control under setting [2]; 150 % of control (dose: 250.0 mg/kg/injection, schedule: Q04DX003 (ip), vehicle: saline).

As to `CC(=O)CC(=O)c1ccccc1.CC(=O)CC(=O)c1ccccc1.CC(=O)CC(=O)c1ccccc1.[Co]`, the T/C runs as follows: (dose: 25.0 mg/kg/injection, schedule: Q01DX001 (ip), vehicle: Klucel (hydroxypropylcellulose) (HPC)) 100 % of control; (dose: 50.0 mg/kg/injection, schedule: Q01DX001 (ip), vehicle: Klucel (hydroxypropylcellulose) (HPC)) 100 % of control.

`CCOC(=O)c1ccc(NCC(C)(C)[N+](=O)[O-])cc1`: the T/C is 88 % of control under setting [1] and 88 % of control under setting [3].

As for `O=C(COc1ccc(Cl)c(Cl)c1)N(Cc1ccccc1)Cc1cccnc1`, the T/C under setting [4] was 110 % of control; the T/C under setting [5] was 108 % of control; the T/C (dose: 400.0 mg/kg/injection, schedule: Q01DX001 (ip), vehicle: Klucel (hydroxypropylcellulose) (HPC)) is 102 % of control.

As to `Cc1ccc(OS(=O)(=O)c2ccc([N+](=O)[O-])cc2)cc1`, the T/C was 102 % of control (dose: 90.0 mg/kg/injection, schedule: Q01DX001 (ip), vehicle: Klucel (hydroxypropylcellulose) (HPC)); 102 % of control (dose: 135.0 mg/kg/injection, schedule: Q01DX001 (ip), vehicle: Klucel (hydroxypropylcellulose) (HPC)); 100 % of control under setting [5]; 93 % of control (dose: 300.0 mg/kg/injection, schedule: Q01DX001 (ip), vehicle: Klucel (hydroxypropylcellulose) (HPC)).

As to `CC(C)OC(=O)Oc1cccc2c1C(=O)c1ccccc1C2=O`, the T/C was 95 % of control under setting [4] and 91 % of control under setting [5].

On to `C1=CC2(OCCO2)C2CC=CC3(OCCO3)C2C1` (stereo not given), for which the T/C by setting is: under setting [1], 104 % of control; under setting [2], 97 % of control; under setting [3], 95 % of control.
